According to patent US20130203718A1 (priority 2010, published 2013):

Molecular target: T1, hAR (Homo sapiens, UniProt P10275)
T1 construct: expressed in transfected cells; host or cells: HEK 293T
T1 sequence (P10275 1-920): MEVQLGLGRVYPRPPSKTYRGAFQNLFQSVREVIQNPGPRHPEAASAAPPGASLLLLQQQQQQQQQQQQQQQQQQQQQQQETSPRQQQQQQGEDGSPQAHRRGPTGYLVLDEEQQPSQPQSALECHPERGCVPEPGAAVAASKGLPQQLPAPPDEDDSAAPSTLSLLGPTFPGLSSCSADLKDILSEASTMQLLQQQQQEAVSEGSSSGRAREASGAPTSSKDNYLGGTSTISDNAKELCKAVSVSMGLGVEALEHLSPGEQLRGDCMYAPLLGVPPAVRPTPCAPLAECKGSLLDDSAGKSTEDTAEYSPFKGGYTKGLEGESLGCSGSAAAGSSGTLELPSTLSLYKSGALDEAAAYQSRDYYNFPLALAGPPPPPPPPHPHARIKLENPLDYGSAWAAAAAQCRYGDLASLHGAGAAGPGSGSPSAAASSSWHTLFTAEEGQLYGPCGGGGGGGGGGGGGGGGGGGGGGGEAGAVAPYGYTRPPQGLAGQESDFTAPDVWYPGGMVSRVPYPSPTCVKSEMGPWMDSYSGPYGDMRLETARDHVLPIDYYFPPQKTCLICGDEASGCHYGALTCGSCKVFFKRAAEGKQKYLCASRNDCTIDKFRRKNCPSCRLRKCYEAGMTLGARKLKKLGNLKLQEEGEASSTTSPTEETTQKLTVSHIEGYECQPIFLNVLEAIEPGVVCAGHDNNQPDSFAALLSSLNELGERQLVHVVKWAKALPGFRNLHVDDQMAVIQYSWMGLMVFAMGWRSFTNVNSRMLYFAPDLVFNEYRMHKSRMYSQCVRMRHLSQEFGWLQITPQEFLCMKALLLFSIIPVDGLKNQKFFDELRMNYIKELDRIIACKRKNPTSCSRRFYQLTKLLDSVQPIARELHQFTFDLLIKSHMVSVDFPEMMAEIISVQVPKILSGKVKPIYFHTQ
Assay: APRn selectivity: transactivation in HEK293T cells transiently expressing hAR
Format: cell-based
Details: for agonist efficacy towards hAR (in words): HEK293T, FIG. 11; for selectivity for hPR vs hAR, hGR and hMR (in words): conclusion from hAR, hGR and hMR transactivation assays
Protocol: Measurement of the APRn Selectivity in HEK 293T.
The HEK-293T cells were cultured and transfected according to the method described above for the PR transactivation assays. The expression vectors pcDNA-hAR, kindly provided by G. A. Coetzee, pchGR (Hellal-Levy, C et al. FEBS Lett 1999, 464, 9), and pchMR (Fagart, J. et al. EMBO J. 1998, 17, 3317) were used for studying the ability of APRn to activate or inactivate the AR, GR and MR, respectively. For each transfection assays, 2 μg of the expression vector was used together with 7 μg of the GRE2-Luc reporter vector. Dihydrotestosterone (DHT), dexamethasone (Dex) and Aldosterone (Aldo) were selected as AR, GR and MR ligands, respectively. They were used at the concentration of 10^−9 M. The APRn agonist and antagonist efficacy for AR, GR and MR were measured as described above for PR. The results are the mean±SEM of three independent experiments.
Transfection assays were performed in HEK 293T cells by using expression vectors for the hAR, hGR and hMR and the GRE2-Luc reporter used for the PR transactivation assays.

Row | Compound | agonist efficacy towards hAR (in words) | selectivity for hPR vs hAR, hGR and hMR (in words)
1 | CC(=O)[C@H]1CC[C@H]2[C@@H]3CC=C4C[C@@H](F)CC[C@]4(C)[C@H]3CC[C@]12C [APR-16, 3β-Fluoropregn-5-en-20-one] | low agonist efficacy | selective hPR antagonists
2 | CC#C[C@]1(O)CCC2C3CC[C@H]4CCCC[C@]4(C)C3CC[C@@]21C (stereo partly drawn) [APR-42, 17α-(1-Propynyl)-5α-androstan-17β-ol] | low agonist efficacy | selective hPR antagonists
3 | C[C@]12CCC3C(CC=C4C[C@@H](F)CC[C@@H]43)C1CCC2=O (stereo partly drawn) [APR-47, 3β-Fluoro-19-nor-androst-5-en-17-one] | low agonist efficacy | selective hPR antagonists
